From patent US20140303092A1 (CHIMERIX, INC., priority 2011, published 2014)

Experiment: Study HDP-CDV-201: safety and tolerability (adverse events, laboratory abnormalities, discontinuations)
Format: in vivo, human (adult allogeneic HSCT recipients)
Description: Clinical Studies of HDP-CDV were performed and described in detail in the following Examples. For example, HDP-CDV-201 is a placebo-controlled, dose-escalating trial in HSCT CMV (R+) recipients, evaluating the ability of HDP-CDV to prevent or control CMV infection was carried out. Five cohorts were established in which participants or subjects received either placebo or the HDP-CDV orally, in doses ranging from 40 mg weekly (QW) to 200 mg twice weekly (BIW). Subjects who were post-HSCT were enrolled at the time of engraftment and randomized to HDP-CDV or placebo (3 to 1 ratio) and received blinded therapy until approximately 100 day post-transplantation. HDP-CDV doses were 40 mg QW, 100 mg QW, 200 mg QW, 200 mg BIW and 100 mg BIW. Escalation to the next dose was decided by the data monitoring committee after review of the safety data from the previous Cohort. Subjects who developed CMV disease or CMV infection requiring pre-emptive therapy with local standard of care were discontinued from blinded therapy and followed for 4 weeks. Subjects who completed treatment with blinded therapy were followed for 8 weeks post-therapy.
Data from Study HDP-CDV-201 also provided characterization of the safety and tolerability profile of HDP-CDV when administered for the prevention or control of CMV infection in high risk (R^+) post-HSCT adult subjects.
The Safety population (SAFETY) included all randomized subjects who took at least one dose of study treatment. This population was used to summarize safety outcomes based on the treatment actually received, in cases where a subject was treated contrary to the randomization schedule.
The safety and tolerability profile of HDP-CDV, including subject demographics and Baseline characteristics; the AE profile; and laboratory abnormalities of interest were analyzed in the cohorts followed in this investigation.
Subjects completing the treatment period received a full course of study medication; those completing the entire study attended visits through 8 weeks of follow up. Subjects who discontinued treatment may have done so for protocol specified reasons (e.g. development of clinically significant CMV infection requiring preemptive treatment with excluded anti-CMV medications) or for other reasons (e.g., withdrawal, adverse events, loss to follow-up). The disposition of subjects in Study HDP-CDV-201 during the double-blind, placebo-controlled treatment period (through Week 11) is listed by dosing Cohort in TABLE 23.
Adverse events were examined by severity to ensure that all safety signals were identified in this study population. Because of the frequency of events in HSCT recipients, particular attention was given to evaluation of Grade 3 […], 4 (severe), and 5 (fatal) adverse events.
Only those preferred terms for which at least one Grade 3 or higher event was experienced in any treatment group are listed. Cytomegalovirus-related AEs are excluded from this analysis.
HDP-CDV is a lipid conjugate of CDV. Because CDV is known to have adverse effects on renal function and bone marrow, decreased GFR and persistent neutropenia were identified as AEs of special interest. Key renal and hematological (TABLE 30) laboratory parameters were measured and listed below by Study HDP-CDV-201 treatment groups. TABLE 30 includes abnormal levels of serum creatinine, neutrophils, platelets, WBCs, and hemoglobin and includes data at Screening and during the treatment period.
A common metric for unit based dosing of medications is by weight (mg/kg). When the distribution of weights was examined for all subjects participating in the study, the median was 78 kg and the lower 25th percentile weight was approximately 65 kg, which translates to a cut-off of ˜3 mg/kg for a 200 mg total weekly dose. Based upon this approach, a cut-off of 3 mg/kg was used to assess the frequency of diarrhea and associated GI AEs reported for the subjects in Cohorts 3 or 4a (TABLE 40).

## CCCCCCCCCCCCCCCCOCCCOP(=O)(O)COC(CO)Cn1ccc(N)nc1=O (stereo not drawn) [HDP-CDV]
Cohort 3
  Grade of hepatobiliary AE acute liver injury, subject 3025: 1
  Grade of hepatobiliary AE gallbladder sludge, subject 3044: 2
  Grade of hepatobiliary AE hyperbilirubenemia, subject 3030: 2
  Grade of hepatobiliary AE hyperbilirubinemia, subject 3009: 1
  Grade of hepatobiliary AE hyperbilirubinemia, subject 3044: 4
  Grade of hepatobiliary AE jaundiced, subject 3030: 2
  Outcome of hepatobiliary AE acute liver injury, subject 3007: not recovered/not
  Outcome of hepatobiliary AE acute liver injury, subject 3025: recovered/resolved
  Outcome of hepatobiliary AE gallbladder sludge, subject 3044: not recovered/not
  Outcome of hepatobiliary AE hyperbilirubenemia, subject 3030: not recovered/not
  Outcome of hepatobiliary AE hyperbilirubinemia, subject 3009: recovered/resolved
  Outcome of hepatobiliary AE hyperbilirubinemia, subject 3044: not recovered/not
  Outcome of hepatobiliary AE jaundiced, subject 3030: not recovered/not
  Relationship of hepatobiliary AE acute liver injury, subject 3007: not related
  Relationship of hepatobiliary AE acute liver injury, subject 3025: not related
  Relationship of hepatobiliary AE gallbladder sludge, subject 3044: not related
  Relationship of hepatobiliary AE hyperbilirubenemia, subject 3030: not related
  Relationship of hepatobiliary AE hyperbilirubinemia, subject 3009: not related
  Relationship of hepatobiliary AE hyperbilirubinemia, subject 3044: not related
  Relationship of hepatobiliary AE jaundiced, subject 3030: not related
  subjects discontinued due to neutropenia: 2 subject(s)
Cohort 3, 200 mg QW
  ALT (Screening) >3 × ULN-5 × ULN, subjects: 0
  ALT (Screening) >5 × ULN-10 × ULN, subjects: 0
  ALT (Screening) >10 × ULN-20 × ULN, subjects: 0
  ALT (Screening) >20 × ULN, subjects: 0
  ALT (any time during therapy) >3 × ULN-5 × ULN, subjects: 4 (10.5%)
  ALT (any time during therapy) >5 × ULN-10 × ULN, subjects: 5 (13.2%)
  ALT (any time during therapy) >10 × ULN-20 × ULN, subjects: 0
  ALT (any time during therapy) >20 × ULN, subjects: 1 (2.6%)
  AST (Screening) >3 × ULN-5 × ULN, subjects: 0
  AST (Screening) >5 × ULN-10 × ULN, subjects: 0
  AST (Screening) >10 × ULN-20 × ULN, subjects: 0
  AST (Screening) >20 × ULN, subjects: 0
  AST (any time during therapy) >3 × ULN-5 × ULN, subjects: 5 (13.2%)
  AST (any time during therapy) >5 × ULN-10 × ULN, subjects: 1 (2.6%)
  AST (any time during therapy) >10 × ULN-20 × ULN, subjects: 0
  AST (any time during therapy) >20 × ULN, subjects: 0
  Alkaline Phosphatase (Screening) >2.5-5.0 × ULN, subjects: 0
  Alkaline Phosphatase (Screening) >5.0-20.0 × ULN, subjects: 0
  Alkaline Phosphatase (Screening) >20.0 × ULN, subjects: 0
  Alkaline Phosphatase (Screening) >ULN-[…] ULN, subjects: 5 (13.5%)
  Alkaline Phosphatase (any time during therapy) >2.5-5.0 × ULN, subjects: 0
  Alkaline Phosphatase (any time during therapy) >5.0-20.0 × ULN, subjects: 0
  Alkaline Phosphatase (any time during therapy) >20.0 × ULN, subjects: 0
  Alkaline Phosphatase (any time during therapy) >ULN-[…] ULN, subjects: 14 (36.8%)
  GI AE Leading to Study Drug Discontinuation: Abdominal pain, subjects: 0
  GI AE Leading to Study Drug Discontinuation: Diarrhoea, subjects: 1 (2.6%)
  GI AE Leading to Study Drug Discontinuation: Dyspepsia, subjects: 2 (5.1%)
  GI AE Leading to Study Drug Discontinuation: Nausea, subjects: 0
  GI AE Leading to Study Drug Discontinuation: Vomiting, subjects: 0
  GI AEs Leading to Study Drug Discontinuation: Total subjects discontinued: 3 (7.7%)
  Gastrointestinal AE Abdominal discomfort, subjects: 1 (2.6%)
  Gastrointestinal AE Abdominal distention, subjects: 0
  Gastrointestinal AE Abdominal pain upper, subjects: 1 (2.6%)
  Gastrointestinal AE Abdominal pain, subjects: 5 (12.8%)
  Gastrointestinal AE Constipation, subjects: 2 (5.1%)
  Gastrointestinal AE Diarrhoea, subjects: 13 (33.3%)
  Gastrointestinal AE Diverticulum intestinal haemorragic, subjects: 1 (2.6%)
  Gastrointestinal AE Dyspepsia, subjects: 4 (10.3%)
  Gastrointestinal AE Dysphagia, subjects: 0
  Gastrointestinal AE Epigastric discomfort, subjects: 0
  Gastrointestinal AE Flatulence, subjects: 1 (2.6%)
  Gastrointestinal AE GERD, subjects: 2 (5.1%)
  Gastrointestinal AE Gastritis, subjects: 0
  Gastrointestinal AE Haematochezia, subjects: 0
  Gastrointestinal AE Haemorroids, subjects: 0
  Gastrointestinal AE Large intestinal ulcer, subjects: 0
  Gastrointestinal AE Nausea, subjects: 11 (28.2%)
  Gastrointestinal AE Odynophagia, subjects: 0
  Gastrointestinal AE Oesophagitis, subjects: 0
  Gastrointestinal AE Retching, subjects: 0
  Gastrointestinal AE Vomiting, subjects: 6 (15.4%)
  Hepatobiliary clinical AE Cholelithiasis, subjects: 0
  Hepatobiliary clinical AE Hepatomegaly, subjects: 0
  Hepatobiliary clinical AE Hyperbilirubinaemia, subjects: 3 (7.7%)
  Hepatobiliary clinical AE Jaundice, subjects: 1 (2.6%)
  Hepatobiliary clinical AE Liver injury, subjects: 2 (5.1%)
  Intensity of Gastrointestinal AEs, Grade 1, subjects: 12 (30.8%)
  Intensity of Gastrointestinal AEs, Grade 2, subjects: 10 (25.6%)
  Intensity of Gastrointestinal AEs, Grade 3, subjects: 2 (5.1%)
  Intensity of Gastrointestinal AEs, Grade 4, subjects: 2 (5.1%)
  Intensity of Gastrointestinal AEs, Grade 5, subjects: 0
  Proportion of Subjects with Stage 3 or 4 Gut GVHD: 0%
  Serum ALT level, Median fold increase from Baseline at Follow-up Week 1: 2.52 fold
  Serum ALT level, Median fold increase from Baseline at Follow-up Week 4: 1.06 fold
  Serum ALT level, Peak Median fold increase from Baseline: 3.13 fold
  Subjects completed study: 14 (35.9%) n (%)
  TEAE Abdominal pain Grade 2, subjects: 1 (2.6%)
  TEAE Abdominal pain Grade 3, subjects: 1 (2.6%)
  TEAE Abdominal pain Grade 4, subjects: 0
  TEAE Abdominal pain Grade 5, subjects: 0
  TEAE Abdominal pain Overall Frequency, subjects: 5 (12.8%)
  TEAE Diarrhea Grade 2, subjects: 5 (12.8%)
  TEAE Diarrhea Grade 3, subjects: 2 (5.1%)
  TEAE Diarrhea Grade 4, subjects: 0
  TEAE Diarrhea Grade 5, subjects: 0
  TEAE Diarrhea Overall Frequency, subjects: 13 (33.3%)
  TEAE Hypokalaemia Grade 2, subjects: 2 (5.1%)
  TEAE Hypokalaemia Grade 3, subjects: 0
  TEAE Hypokalaemia Grade 4, subjects: 0
  TEAE Hypokalaemia Grade 5, subjects: 0
  TEAE Hypokalaemia, subjects: 5 (12.8%)
  TEAE Nausea Grade 2, subjects: 4 (10.3%)
  TEAE Nausea Grade 3, subjects: 1 (2.6%)
  TEAE Nausea Grade 4, subjects: 0
  TEAE Nausea Grade 5, subjects: 0
  TEAE Nausea Overall Frequency, subjects: 11 (28.2%)
  TEAE Vomiting Grade 2, subjects: 1 (2.6%)
  TEAE Vomiting Grade 3, subjects: 1 (2.6%)
  TEAE Vomiting Grade 4, subjects: 0
  TEAE Vomiting Grade 5, subjects: 0
